The values below come from patent US5432260A, “High affinity mannose receptor ligands” (Washington University, priority 1991, dated 1995).

The assay addresses T1, purified mannose receptor (Homo sapiens, UniProt P22897).
T1 construct: purified mannose receptor (Lennartz, M. R. et al., J Biol Chem (1987) 262:9942-9944 (supra)) is added; from tissue
T1 sequence (P22897 19-1456): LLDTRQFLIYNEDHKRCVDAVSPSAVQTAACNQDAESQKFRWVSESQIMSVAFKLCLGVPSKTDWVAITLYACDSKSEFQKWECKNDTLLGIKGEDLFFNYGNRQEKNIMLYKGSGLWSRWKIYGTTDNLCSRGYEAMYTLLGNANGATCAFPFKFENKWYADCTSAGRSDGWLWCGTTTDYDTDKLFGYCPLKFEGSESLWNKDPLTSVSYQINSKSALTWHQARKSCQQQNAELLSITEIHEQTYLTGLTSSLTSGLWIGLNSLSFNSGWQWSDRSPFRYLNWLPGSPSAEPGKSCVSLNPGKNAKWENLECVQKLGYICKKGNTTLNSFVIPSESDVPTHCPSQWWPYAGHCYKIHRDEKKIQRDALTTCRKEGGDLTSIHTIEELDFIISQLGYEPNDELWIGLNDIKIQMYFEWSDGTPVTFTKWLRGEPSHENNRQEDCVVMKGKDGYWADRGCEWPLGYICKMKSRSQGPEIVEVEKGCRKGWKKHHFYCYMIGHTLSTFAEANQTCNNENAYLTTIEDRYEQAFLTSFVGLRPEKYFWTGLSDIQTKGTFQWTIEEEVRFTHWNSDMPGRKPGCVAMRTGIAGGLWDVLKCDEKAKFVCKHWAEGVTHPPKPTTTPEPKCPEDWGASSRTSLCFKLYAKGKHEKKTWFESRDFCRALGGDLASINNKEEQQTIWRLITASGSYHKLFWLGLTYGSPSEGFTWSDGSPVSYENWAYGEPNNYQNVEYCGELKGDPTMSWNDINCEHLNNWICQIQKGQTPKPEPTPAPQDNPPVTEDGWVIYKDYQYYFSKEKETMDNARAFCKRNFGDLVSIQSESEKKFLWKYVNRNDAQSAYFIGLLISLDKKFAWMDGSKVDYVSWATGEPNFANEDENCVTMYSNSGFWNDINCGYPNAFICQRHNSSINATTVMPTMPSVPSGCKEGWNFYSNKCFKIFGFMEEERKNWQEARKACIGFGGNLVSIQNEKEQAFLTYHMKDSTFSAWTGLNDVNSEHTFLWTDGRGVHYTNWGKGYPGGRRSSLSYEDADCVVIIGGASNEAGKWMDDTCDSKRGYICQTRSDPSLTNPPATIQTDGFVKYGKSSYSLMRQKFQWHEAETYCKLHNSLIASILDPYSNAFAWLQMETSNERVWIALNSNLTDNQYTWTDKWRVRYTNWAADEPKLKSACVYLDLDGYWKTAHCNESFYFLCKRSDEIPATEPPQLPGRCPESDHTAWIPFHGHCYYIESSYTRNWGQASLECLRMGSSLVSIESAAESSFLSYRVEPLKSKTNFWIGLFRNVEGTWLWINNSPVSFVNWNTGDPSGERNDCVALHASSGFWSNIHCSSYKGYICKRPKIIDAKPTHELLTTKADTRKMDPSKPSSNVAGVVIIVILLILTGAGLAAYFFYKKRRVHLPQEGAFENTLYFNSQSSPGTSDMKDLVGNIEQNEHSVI
As to the kind of experiment: Competition of 125I-mannose-BSA binding to isolated mannose receptor on beads. The note with it: for IC50: 125I-mannose-BSA 2 nM, 37° C., 15 minutes, read-out: IC50 (concentration effecting 50% inhibition of 125I-mannose-BSA binding to mannose receptor). On the procedure:
The assay measures the ability of the test compound to inhibit the binding of ^125 I-mannose-BSA, prepared as described, to isolated mannose receptor. To prepare solid supported receptor protein A-sepharose (IgG-SORB) is incubated with rabbit anti-human mannose receptor antiserum for 20 minutes at room temperature. The beads are then washed by sedimentation 3 times in Tris-buffered saline containing 1% Triton X-100, 1% BSA and 15 mM CaCl2 (assay buffer). The beads are then suspended in an assay buffer and purified mannose receptor (Lennartz, M. R. et al., J Biol Chem (1987) 262:9942-9944 (supra)) is added, followed by incubation for 30 minutes at 37° C. The beads are washed again three times to remove unbound receptor.
In the assay, the receptor-linked beads are resuspended in a total volume of 100 μL assay buffer containing 0.1 μCi ^125 I-mannose-BSA (2 nM) prepared according to (Stahl, P. et al., Cell (1980) (supra)) with and without test compound. Following incubation at 37° C. for 15 minutes, the beads are diluted in ice cold buffer and washed three times in the same assay buffer as the dissociation or receptor/ligand at 4° C. is quite slow. The cpm of ^125 I-mannose-BSA remaining in the […] is determined, and the percent inhibition of test compound at various concentrations calculated. The IC50 is then the concentration which effects a 50% inhibition in binding. Nonspecific binding of ligand to beads is determined by adding excess yeast mannan to parallel assays and accounted for in the calculations.
The ^125 I-mannose-BSA used in the assay binds to receptor beads with a Kd of 2 nM as determined in the foregoing assay using unlabeled mannose-BSA as test compound.
The competition was conducted as set forth above, using as test compounds, mannose, oligosaccharides containing 3, 5, 7, 9 or 13 mannose residues linked α1, 4 (Man9 and Man13, respectively) and two proteins known to contain mannose residues, β-glucuronidase and invertase. ^125 I-mannose-BSA at 2 nM was used in the assay and mannose-BSA was used in a control. Varying concentrations of test compound were used to determine the IC50 for each material.
The compounds synthesized in Example 2 were tested in the assay system described in Example 1 above under the conditions therein set forth. FIGS. 2 and 3 show the results. The IC50 (concentration of test compound which effects 50% inhibition of binding of labeled mannose-BSA under the conditions of the assay) can be read from the figures.

On to `O=C[C@@H](O)[C@@H](O)[C@H](O)[C@H](O)CO` [Mannose, mannose], for which the “fold less effective than the mannose oligosaccharides in inhibiting 125I-mannose-BSA binding” value (relative to Man9/Man13, FIG. 1) was “at least 1,000 fold”. For Man9, the IC50 is approximately 20 µM. As for “Invertase: protein known to contain mannose residues”, the IC50 fell in the range of 0.01 to 0.1 µM. For the setting “digested with pronase”, the “ability to inhibit the binding of 125I-mannosyl-BSA after digestion with pronase” value is reported as “destroyed”.
